According to PMC7734590, “Identification of a Selective RelA Inhibitor Based on DSE-FRET Screening Methods” (International Journal of Molecular Sciences, 2020):
Where “and” joins values, the source holds several entries; their conditions need not be identical. Equal entries are not always repeated. Structures can show the parent of a compound that is named as a salt. Where two headings read alike, the source gives them in different places.

Legend:
p52 = target: T1, p52 (Homo sapiens, UniProt Q00653); test: DSE-FRET p52–DNA binding inhibition; format: biochemical; parameters: p52 Retest % Inhibition Run2 / p52 Retest % Inhibition Avg. / Kinetic assay p52 Inhibition % ΔRFU(60 min-0 min) / p52 HTS % Inhibition / p52 Retest % Inhibition Run1: dose or concentration left out as unconfirmed; conditions: for Hit Judgement of: p52: 1 = judged hit after retest
T1 sequence (Q00653 1-454 limits assumed): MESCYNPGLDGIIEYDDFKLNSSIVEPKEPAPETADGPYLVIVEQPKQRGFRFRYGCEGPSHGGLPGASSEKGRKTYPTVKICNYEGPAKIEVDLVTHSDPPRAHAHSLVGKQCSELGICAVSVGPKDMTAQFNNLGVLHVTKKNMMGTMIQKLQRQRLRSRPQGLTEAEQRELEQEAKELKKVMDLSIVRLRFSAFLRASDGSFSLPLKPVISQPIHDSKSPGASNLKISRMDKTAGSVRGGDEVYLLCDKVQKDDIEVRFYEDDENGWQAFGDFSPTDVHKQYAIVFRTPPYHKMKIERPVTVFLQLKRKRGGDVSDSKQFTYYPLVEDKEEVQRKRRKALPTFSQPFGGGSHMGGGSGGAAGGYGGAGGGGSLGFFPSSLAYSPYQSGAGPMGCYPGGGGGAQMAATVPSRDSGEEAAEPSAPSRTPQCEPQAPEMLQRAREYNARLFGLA

RelA = RelA (Homo sapiens, UniProt Q04206); test: DSE-FRET RelA–DNA binding inhibition; format: biochemical; parameters: Kinetic assay RelA Inhibition % ΔRFU(60 min-0 min) / RelA HTS % Inhibition / RelA Retest % Inhibition Run1 / RelA Retest % Inhibition Run2 / RelA Retest % Inhibition Avg. / Kinetic assay RelA % Inhibition ΔRFU(60 min-0 min): dose or concentration left out as unconfirmed; conditions: for Hit Judgement of: RelA: 1 = judged hit after retest
Description: Plate-based (384 scale) DNA-binding experiments were carried out with 0.1 µL of 2 mM or 1 mg/mL compound, 2 µL of 80 nM NF-D1 (consisting of NF-01F and NF-14D), 1 µL of 20 ng/µL poly dI-dC, and 6.9 µL of 3.2 pmol protein in binding buffer (10 mM 4-(2-hydroxyethyl)-1-piperazineethanesulfonic acid (HEPES)–NaOH pH 7.9, 50 mM KCl, 0.1 mM ethylenediaminetetraacetic acid (EDTA), 2.5 mM dithiothreitol (DTT), 10% glycerol, and 0.05% Nonidet P40). The plates were incubated for 30 min at room temperature, after which 10 µL of NF-D2 (consisting of NF-02 and NF-13) was added. The plates were centrifuged at 1000 rpm for 30 s, followed by shaking for 30 s using a plate shaker (Biotec). Fluorescence was measured at 528 nm, after excitation at 485 nm, using a multiplate reader (Biotec) over a period of 60 min.

[1] = HTS, known drugs, 10 µM, read-out: p52 HTS % Inhibition @ 10 µM
[2] = kinetic assay, 60 min-0 min, 10 µM, read-out: Kinetic assay @ 10 µM p52 % Inhibition ΔRFU(60 min-0 min)
[3] = retest, Run1, 10 µM, read-out: p52 Retest % Inhibition @ 10 µM Run1
[4] = retest, Run2, 10 µM, read-out: p52 Retest % Inhibition @ 10 µM Run2
[5] = retest, average of Run1 and Run2, 10 µM, read-out: p52 Retest % Inhibition @ 10 µM Avg.
[6] = HTS, known drugs, 10 µM, read-out: RelA HTS % Inhibition @ 10 µM
[7] = kinetic assay, 60 min-0 min, 10 µM, read-out: Kinetic assay @ 10 µM RelA % Inhibition ΔRFU(60 min-0 min)
[8] = retest, Run1, 10 µM, read-out: RelA Retest % Inhibition @ 10 µM Run1
[9] = retest, Run2, 10 µM, read-out: RelA Retest % Inhibition @ 10 µM Run2
[10] = retest, average of Run1 and Run2, 10 µM, read-out: RelA Retest % Inhibition @ 10 µM Avg.
[11] = HTS, 5 µg/mL, NPDepo hits, read-out: RelA HTS % Inhibition @ 5 µg/mL
[12] = Retest Run1, 5 µg/mL, read-out: RelA Retest % Inhibition @ 5 µg/mL Run1
[13] = Retest Run2, 5 µg/mL, read-out: RelA Retest % Inhibition @ 5 µg/mL Run2
[14] = Retest average of Run1 and Run2, 5 µg/mL, read-out: RelA Retest % Inhibition @ 5 µg/mL Avg.
[15] = kinetic assay, 5 µg/mL, ΔRFU 60 min-0 min, read-out: Kinetic assay @ 5 µg/mL RelA Inhibition % ΔRFU(60 min-0 min)
[16] = kinetic assay, ΔRFU 60 min-0 min
[17] = HTS, 5 µg/mL, NPDepo hits, read-out: p52 HTS % Inhibition @ 5 µg/mL
[18] = Retest Run1, 5 µg/mL, read-out: p52 Retest % Inhibition @ 5 µg/mL Run1
[19] = Retest Run2, 5 µg/mL, read-out: p52 Retest % Inhibition @ 5 µg/mL Run2
[20] = Retest average of Run1 and Run2, 5 µg/mL, read-out: p52 Retest % Inhibition @ 5 µg/mL Avg.
[21] = kinetic assay, 5 µg/mL, ΔRFU 60 min-0 min, read-out: Kinetic assay @ 5 µg/mL p52 Inhibition % ΔRFU(60 min-0 min)

Sequence of RelA (Q04206 19-306 limits assumed): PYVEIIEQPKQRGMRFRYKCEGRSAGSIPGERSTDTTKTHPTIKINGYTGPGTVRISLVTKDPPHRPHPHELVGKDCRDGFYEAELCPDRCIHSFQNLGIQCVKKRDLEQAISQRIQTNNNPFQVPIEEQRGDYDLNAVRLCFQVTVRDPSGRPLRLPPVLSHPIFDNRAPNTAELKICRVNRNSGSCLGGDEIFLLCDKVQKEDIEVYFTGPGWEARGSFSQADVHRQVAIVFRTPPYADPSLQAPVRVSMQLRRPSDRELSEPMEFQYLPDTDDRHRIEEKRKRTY

CC[C@@]1(O)C(=O)OCc2c1cc1n(c2=O)Cc2cc3c(CN(C)C)c(O)ccc3nc2-1 [Topotecan]
inhibition at 10 µM (p52; [1]): 74.5%
inhibition at 10 µM (p52; [2]): -3.67%
inhibition at 10 µM (p52; [3]): 94.6%
inhibition at 10 µM (p52; [4]): 104%
inhibition at 10 µM (p52; [5]): 99.1%
inhibition at 10 µM (RelA; [6]): 91.4%
inhibition at 10 µM (RelA; [7]): -4.46%
inhibition at 10 µM (RelA; [8]): 99.3%
inhibition at 10 µM (RelA; [9]): 109%
inhibition at 10 µM (RelA; [10]): 104%

COc1cccc2c1C(=O)c1c(O)c3c(c(O)c1C2=O)C[C@@](O)(C(C)=O)C[C@@H]3O[C@H]1C[C@H](N)[C@H](O)[C@H](C)O1 [Daunorubicin hydrochloride]
Kinetic assay p52 % Inhibition ΔRFU(60 min-0 min) (p52; kinetic assay, 60 min-0 min): -16% and -18%

Cc1[nH]c(/C=C2\C(=O)Nc3ccccc32)c(C)c1CCC(=O)O [SU 6668]
inhibition at 10 µM (p52; [1]): 33.8%
inhibition at 10 µM (p52; [2]): -12%
inhibition at 10 µM (p52; [3]): 29.3%
inhibition at 10 µM (p52; [4]): 32.3%
inhibition at 10 µM (p52; [5]): 30.8%
inhibition at 10 µM (RelA; [6]): 29.9%
inhibition at 10 µM (RelA; [7]): -15%
inhibition at 10 µM (RelA; [8]): 32.3%
inhibition at 10 µM (RelA; [9]): 36.4%
inhibition at 10 µM (RelA; [10]): 34.3%

O=C(O)c1cc(O)c2c(c1)[C@@H]([C@H]1c3cc(C(=O)O)cc(O)c3C(=O)c3c(O[C@@H]4O[C@H](CO)[C@@H](O)[C@H](O)[C@H]4O)cccc31)c1cccc(O[C@@H]3O[C@H](CO)[C@@H](O)[C@H](O)[C@H]3O)c1C2=O [Sennoside B]
Hit Judgement of: p52 (p52): 1
Hit Judgement of: RelA (RelA): 1
inhibition at 5 µg/mL (RelA; [11]): 87.4%
inhibition at 5 µg/mL (RelA; [12]): 74.5%
inhibition at 5 µg/mL (RelA; [13]): 85.1%
inhibition at 5 µg/mL (RelA; [14]): 79.8%
inhibition at 5 µg/mL (RelA; [15]): 73%

CCN1C(=O)C(=CC=C2Oc3ccccc3N2CCC(=O)O)N(C)C1=S
p52 HTS % Inhibition (p52; HTS, NPDepo hits): 115.0%
Kinetic assay p52 Inhibition % ΔRFU(60 min-0 min) (p52; [16]): -27%
RelA HTS % Inhibition (RelA; HTS, NPDepo hits): 107.7%
Kinetic assay RelA Inhibition % ΔRFU(60 min-0 min) (RelA; [16]): -18%

CC(C)(CO)[C@@H](O)C(=O)NCCCO [DEXPANTHENOL]
inhibition at 10 µM (p52; [1]): 241%
inhibition at 10 µM (p52; [2]): -1.23%
inhibition at 10 µM (p52; [3]): 207%
inhibition at 10 µM (p52; [4]): 231%
inhibition at 10 µM (p52; [5]): 219%
inhibition at 10 µM (RelA; [6]): 242%
inhibition at 10 µM (RelA; [7]): -4.64%
inhibition at 10 µM (RelA; [8]): 226%
inhibition at 10 µM (RelA; [9]): 246%
inhibition at 10 µM (RelA; [10]): 236%

O=C1C=CC(=C(c2ccc(O)c(O)c2)c2ccccc2S(=O)(=O)O)C=C1O (mixture of isomers) [Pyrocatechol violet]
Hit Judgement of: p52 (p52): 1
inhibition at 5 µg/mL (p52; [17]): 4.4%
inhibition at 5 µg/mL (p52; [18]): 14.9%
inhibition at 5 µg/mL (p52; [19]): 16.2%
inhibition at 5 µg/mL (p52; [20]): 15.6%
inhibition at 5 µg/mL (p52; [21]): 6%
Hit Judgement of: RelA (RelA): 1
inhibition at 5 µg/mL (RelA; [11]): 52.5%
inhibition at 5 µg/mL (RelA; [12]): 43.2%
inhibition at 5 µg/mL (RelA; [13]): 47.5%
inhibition at 5 µg/mL (RelA; [14]): 45.3%
inhibition at 5 µg/mL (RelA; [15]): 15%

COc1cccc2c1C(=O)c1c(O)c3c(c(O)c1C2=O)C[C@@](O)(C(C)=O)C[C@@H]3O[C@H]1C[C@H](N)[C@H](O)[C@H](C)O1 [Daunomycin]
inhibition at 5 µg/mL (p52; [17]): 77.8%
inhibition at 5 µg/mL (p52; [18]): 92.7%
inhibition at 5 µg/mL (p52; [19]): 99%
inhibition at 5 µg/mL (p52; [20]): 95.9%
inhibition at 5 µg/mL (p52; [21]): -4.66%

Cc1cc(-c2ccc(/N=N/c3c(S(=O)(=O)O)cc4cc(S(=O)(=O)O)cc(N)c4c3O)c(C)c2)ccc1/N=N/c1c(S(=O)(=O)O)cc2cc(S(=O)(=O)O)cc(N)c2c1O [Trypan blue]
Hit Judgement of: p52 (p52): 1
inhibition at 5 µg/mL (p52; [17]): 2.8%
inhibition at 5 µg/mL (p52; [18]): 15.1%
inhibition at 5 µg/mL (p52; [19]): 16.4%
inhibition at 5 µg/mL (p52; [20]): 15.8%
inhibition at 5 µg/mL (p52; [21]): 7%
Hit Judgement of: RelA (RelA): 1
inhibition at 5 µg/mL (RelA; [11]): 54.8%
inhibition at 5 µg/mL (RelA; [12]): 62%
inhibition at 5 µg/mL (RelA; [13]): 69%
inhibition at 5 µg/mL (RelA; [14]): 65.5%
inhibition at 5 µg/mL (RelA; [15]): 26%
